From patent publication US12398154B2, “Azaquinazoline pan-KRas inhibitors” (Mirati Therapeutics, Inc., priority 2020, dated 2025)

Key:
KRas G12D = KRas G12D (Homo sapiens, UniProt P01116, G12D); experiment: biochemical;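 note: TR-FRET displacement binding assay on KRas, read after a one-hour incubation at room temperature, IC50 fitted from percent-of-control values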
Method: (§1) The ability of a compound to bind to KRas was measured using a TR-FRET displacement assay. […] After a 60-minute incubation at room temperature, the reaction was measured using a BMG LABTECH CLARIO star Plus via TR-FRET. […] The POC values were fit to a 4-parameter IC50 equation and the IC50 value reported.

KRas G12V = KRas G12V (Homo sapiens, UniProt P01116, G12V); experiment: biochemical;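 note: KRas binding measured by TR-FRET displacement at room temperature, IC50 fitted from percent of control values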
Sequence of KRas G12V (P01116 1-169 isoform P01116-2 G12V): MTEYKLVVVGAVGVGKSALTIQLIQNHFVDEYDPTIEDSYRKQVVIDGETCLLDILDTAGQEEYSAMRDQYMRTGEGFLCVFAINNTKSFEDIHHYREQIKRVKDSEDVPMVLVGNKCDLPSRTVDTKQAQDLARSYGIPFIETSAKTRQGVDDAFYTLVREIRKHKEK
Method: as §1

KRas Q61H = target: T1, KRas Q61H (Homo sapiens, UniProt P01116, Q61H); experiment: KRas binding assay (TR-FRET displacement);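 note: TR-FRET signal read after one hour at room temperature, IC50 derived by four-parameter fitting of percent-of-control values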
T1 construct: Biotinylated KRas (corresponding to amino acids 1-169, produced at Accelegan Inc.); biotin (biotinylated); purchased Accelegan Inc
T1 sequence (P01116 1-169 isoform P01116-2 Q61H): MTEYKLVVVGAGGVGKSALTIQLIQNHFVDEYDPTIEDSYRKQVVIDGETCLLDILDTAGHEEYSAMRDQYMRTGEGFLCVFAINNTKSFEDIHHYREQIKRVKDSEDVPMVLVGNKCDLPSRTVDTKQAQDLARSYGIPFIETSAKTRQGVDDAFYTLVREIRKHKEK
Method: as §1

KRas G12S = KRas G12S (Homo sapiens, UniProt P01116, G12S); experiment: biochemical;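 note: TR-FRET displacement binding to KRas, read after one hour incubation at room temperature, IC50 from four-parameter fit of percent of control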
Sequence of KRas G12S (P01116 1-169 isoform P01116-2 G12S): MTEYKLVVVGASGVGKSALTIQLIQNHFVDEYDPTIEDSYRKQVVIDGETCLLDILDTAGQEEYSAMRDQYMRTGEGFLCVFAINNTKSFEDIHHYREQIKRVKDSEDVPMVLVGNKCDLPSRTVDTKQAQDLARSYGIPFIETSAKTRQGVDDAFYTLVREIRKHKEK
Method: as §1

KRas G12R = KRas G12R (Homo sapiens, UniProt P01116, G12R); experiment: biochemical;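 note: TR-FRET displacement assay of compound binding to KRas, read after one hour at room temperature, potency from a four-parameter fit of percent-of-control values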
Sequence of KRas G12R (P01116 1-169 isoform P01116-2 G12R): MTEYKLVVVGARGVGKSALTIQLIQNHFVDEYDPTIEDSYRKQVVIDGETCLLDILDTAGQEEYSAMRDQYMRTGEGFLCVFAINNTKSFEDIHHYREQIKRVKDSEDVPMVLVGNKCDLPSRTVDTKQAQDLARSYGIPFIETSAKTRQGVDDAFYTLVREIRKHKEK
Method: as §1

KRas WT = KRas WT (Homo sapiens, UniProt P01116); experiment: biochemical;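 note: binding to KRas read as TR-FRET displacement after a one-hour room-temperature incubation, IC50 derived from percent-of-control values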
Sequence of KRas WT (P01116 1-169 isoform P01116-2): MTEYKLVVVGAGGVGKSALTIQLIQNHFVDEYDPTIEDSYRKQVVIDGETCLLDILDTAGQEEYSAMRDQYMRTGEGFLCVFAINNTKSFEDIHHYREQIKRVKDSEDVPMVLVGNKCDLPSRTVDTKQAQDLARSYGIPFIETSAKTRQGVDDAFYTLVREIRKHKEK
Method: as §1

KRas G12C = KRas G12C (Homo sapiens, UniProt P01116, G12C); experiment: biochemical;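 note: binding to KRas assessed by TR-FRET displacement after one hour incubation at room temperature, potency fitted from percent-of-control values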
Sequence of KRas G12C (P01116 1-169 isoform P01116-2 G12C): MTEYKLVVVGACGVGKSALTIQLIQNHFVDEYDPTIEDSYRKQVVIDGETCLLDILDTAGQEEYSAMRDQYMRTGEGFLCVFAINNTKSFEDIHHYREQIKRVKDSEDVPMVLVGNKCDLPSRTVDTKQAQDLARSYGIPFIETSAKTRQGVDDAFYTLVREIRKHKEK
Method: as §1

KRas G12A = KRas G12A (Homo sapiens, UniProt P01116, G12A); experiment: biochemical;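 note: binding to KRas measured by TR-FRET displacement after one hour at room temperature, IC50 from a four-parameter fit of percent-of-control values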
Sequence of KRas G12A (P01116 1-169 isoform P01116-2 G12A): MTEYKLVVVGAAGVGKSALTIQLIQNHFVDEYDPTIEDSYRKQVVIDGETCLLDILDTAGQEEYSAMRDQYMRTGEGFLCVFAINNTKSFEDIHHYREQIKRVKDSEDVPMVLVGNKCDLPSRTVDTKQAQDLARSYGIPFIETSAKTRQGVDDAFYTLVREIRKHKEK
Method: as §1

KRas G13D = target: T2, KRas G13D (Homo sapiens, UniProt P01116, G13D); experiment: KRas binding assay (TR-FRET displacement);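 note: One-hour room temperature incubation before TR-FRET reading, IC50 from a four-parameter curve fit to percent-of-control data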
T2 construct: Biotinylated KRas (corresponding to amino acids 1-169, produced at Accelegan Inc.); biotin (biotinylated); purchased Accelegan Inc
T2 sequence (P01116 1-169 isoform P01116-2 G13D): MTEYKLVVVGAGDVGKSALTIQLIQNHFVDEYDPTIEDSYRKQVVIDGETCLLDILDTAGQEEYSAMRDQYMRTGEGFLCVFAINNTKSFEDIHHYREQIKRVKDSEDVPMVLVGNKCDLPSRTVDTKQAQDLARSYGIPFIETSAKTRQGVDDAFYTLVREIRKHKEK
Method: as §1

Sequence of KRas G12D (P01116 1-169 isoform P01116-2 G12D): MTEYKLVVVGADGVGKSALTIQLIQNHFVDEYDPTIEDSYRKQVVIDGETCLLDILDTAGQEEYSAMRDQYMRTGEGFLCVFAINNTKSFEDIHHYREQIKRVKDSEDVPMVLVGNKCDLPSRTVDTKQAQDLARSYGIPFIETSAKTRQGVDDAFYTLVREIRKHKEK

SMILES | IC50 (KRas G12D) [µM] | IC50 (KRas G12V) [µM] | IC50 (KRas Q61H) [nM] | IC50 (KRas G12S) [µM] | IC50 (KRas G12R) [µM] | IC50 (KRas WT) [µM] | IC50 (KRas G12C) [µM] | IC50 (KRas G12A) [µM] | IC50 (KRas G13D) [nM]
O=S1(=O)CCCN1C1CCCN(c2nc(OCC34CCCN3CCC4)nc3c(F)c(-c4cccc5cccc(F)c45)ncc23)C1 (stereo not drawn) [Example 239, 2-(1-(8-fluoro-7-(8-fluoronaphthalen-1-yl)-2-((hexahydro-1H-pyrrolizin-7a-yl)methoxy)pyrido[4,3-d]pyrimidin-4-yl)piperidin-3-yl)isothiazolidine 1,1-dioxide] | 8.65 | 4.93 | 2670 | 2.21 | 4.81 | 1.83 | 1.61 | 1.98 | 1640
Fc1c(-c2cccc3cccc(F)c23)ncc2c(NCCc3ccn[nH]3)nc(OCC34CCCN3CCC4)nc12 [Example 215, N-(2-(1H-pyrazol-5-yl)ethyl)-8-fluoro-7-(8-fluoronaphthalen-1-yl)-2-((tetrahydro-1H-pyrrolizin-7a(5H)-yl)methoxy)pyrido[4,3-d]pyrimidin-4-amine] | ≥ 100 | 17 | 57500 | 23.5 | 8.95 | 34 | 17.8 | 26.1 | 47100
N#Cc1ccccc1N1CCN(c2nc(OCC34CCCN3CCC4)nc3c(F)c(-c4cccc5cccc(F)c45)ncc23)CC1 [Example 216, 2-(4-(8-fluoro-7-(8-fluoronaphthalen-1-yl)-2-((tetrahydro-1H-pyrrolizin-7a(5H)-yl)methoxy)pyrido[4,3-d]pyrimidin-4-yl)piperazin-1-yl)benzonitrile] | ≥ 100 | 17.9 | 83200 | 41 | 2.57 | 30.9 | 6.3 | 13.8 | 59000
N#Cc1cccnc1N1CCN(c2nc(OCC34CCCN3CCC4)nc3c(F)c(-c4cccc5cccc(F)c45)ncc23)CC1 [Example 209, 2-(4-(8-fluoro-7-(8-fluoronaphthalen-1-yl)-2-((tetrahydro-1H-pyrrolizin-7a(5H)-yl)methoxy)pyrido[4,3-d]pyrimidin-4-yl)piperazin-1-yl)nicotinonitrile] | 63.4 | 2.35 | 12700 | 10.1 | 1.61 | 4.96 | 2.52 | 3.7 | 13300
NS(=O)(=O)CC1CCCN(c2nc(OCC34CCCN3CCC4)nc3c(F)c(-c4cccc5cccc(F)c45)ncc23)C1 (stereo not drawn) [Example 221, 1-(1-(8-fluoro-7-(8-fluoronaphthalen-1-yl)-2-((tetrahydro-1H-pyrrolizin-7a(5H)-yl)methoxy)pyrido[4,3-d]pyrimidin-4-yl)piperidin-3-yl)methanesulfonamide] | 0.586 | 0.556 | 231 | 0.313 | 0.191 | 0.284 | 0.498 | 0.271 | 308
Fc1c(-c2cccc3cccc(Cl)c23)ncc2c(N3CCCC3c3cn[nH]c3)nc(OCC34CCCN3CCC4)nc12 (stereo not drawn) [Example 104, 4-(2-(1H-pyrazol-4-yl)pyrrolidin-1-yl)-7-(8-chloronaphthalen-1-yl)-8-fluoro-2-((tetrahydro-1H-pyrrolizin-7a(5H)-yl)methoxy)pyrido[4,3-d]pyrimidine] | 7.61 | 2.87 | 3210 | 2.02 | 2.82 | 2.33 | 2.3 | 1.74 | 3640
CCc1cccc2cccc(-c3ncc4c(NCc5c[nH]c6ncccc56)nc(OCC56CCCN5CCC6)nc4c3F)c12 [Example 205, N-((1H-pyrrolo[2,3-b]pyridin-3-yl)methyl)-7-(8-ethylnaphthalen-1-yl)-8-fluoro-2-((hexahydro-1H-pyrrolizin-7a-yl)methoxy)pyrido[4,3-d]pyrimidin-4-amine] | 0.307 | 0.008 | 95 | 0.016 | 0.007 | 0.08 | 0.01 | 0.013 | 69
O=C1NCC(CNc2nc(OCC34CCCN3CCC4)nc3c(F)c(-c4cccc5cccc(F)c45)ncc23)O1 (stereo not drawn) [Example 110, 5-(((8-fluoro-7-(8-fluoronaphthalen-1-yl)-2-((tetrahydro-1H-pyrrolizin-7a(5H)-yl)methoxy)pyrido[4,3-d]pyrimidin-4-yl)amino)methyl)oxazolidin-2-one] | 26.9 | 3.97 | 10100 | 4.37 | 2.48 | 8.81 | 5.22 | 9.28 | 9330
Fc1c(-c2cccc3cccc(F)c23)ncc2c(NCc3ccc4nccn4c3)nc(OCC34CCCN3CCC4)nc12 [Example 208, 8-fluoro-7-(8-fluoronaphthalen-1-yl)-N-(imidazo[1,2-a]pyridin-6-ylmethyl)-2-((tetrahydro-1H-pyrrolizin-7a(5H)-yl)methoxy)pyrido[4,3-d]pyrimidin-4-amine] | 17.4 | 0.824 | 7150 | 2.26 | 0.494 | 4.01 | 0.677 | 1.3 | 6250
O=C1NC2(CCN(c3nc(OCC45CCCN4CCC5)nc4c(F)c(-c5cccc6cccc(F)c56)ncc34)CC2)CO1 [Example 224, 8-(8-fluoro-7-(8-fluoronaphthalen-1-yl)-2-((tetrahydro-1H-pyrrolizin-7a(5H)-yl)methoxy)pyrido[4,3-d]pyrimidin-4-yl)-3-oxa-1,8-diazaspiro[4.5]decan-2-one] | 64.8 | 8.48 | 9670 | 7.11 | 4.02 | 6.28 | 11.7 | 8.45 | 4830
CC1(O)CCCN(c2nc(OCC3(CN4CCCC4)CC3)nc3c(F)c(-c4cccc5cccc(F)c45)ncc23)C1 (stereo not drawn) [Example 257, 1-(8-fluoro-7-(8-fluoronaphthalen-1-yl)-2-((1-(pyrrolidin-1-ylmethyl)cyclopropyl)methoxy)pyrido[4,3-d]pyrimidin-4-yl)-3-methylpiperidin-3-ol] | 2.43 | 3.79 | 6030 | 5.22 | 6.91 | 4.03 | 4 | 5.49 | 3960
NC(=O)NC1CCN(c2nc(OCC34CCCN3CCC4)nc3c(F)c(-c4cccc5cccc(F)c45)ncc23)CC1 [Example 243, 1-(1-(8-fluoro-7-(8-fluoronaphthalen-1-yl)-2-((hexahydro-1H-pyrrolizin-7a-yl)methoxy)pyrido[4,3-d]pyrimidin-4-yl)piperidin-4-yl)urea] | 25.4 | 2.19 | 3580 | 1.81 | 1.06 | 3.32 | 1.15 | 1.05 | 2960
Nc1cc2n(n1)CCN(c1nc(OCC34CCCN3CCC4)nc3c(F)c(-c4cccc5cccc(F)c45)ncc13)C2 [Example 126, 5-(8-fluoro-7-(8-fluoronaphthalen-1-yl)-2-((tetrahydro-1H-pyrrolizin-7a(5H)-yl)methoxy)pyrido[4,3-d]pyrimidin-4-yl)-4,5,6,7-tetrahydropyrazolo[1,5-a]pyrazin-2-amine] | 67.3 | ≥ 100 | 7500 | 3.97 | 18.4 | 5.97 | 9.29 | 13.8 | 7290
OC1CC2CC(C1)N(c1nc(OCC34CCCN3CCC4)nc3c(F)c(-c4cccc5cccc(Cl)c45)ncc13)C2 (stereo not drawn) [Example 106, 6-(7-(8-chloronaphthalen-1-yl)-8-fluoro-2-((tetrahydro-1H-pyrrolizin-7a(5H)-yl)methoxy)pyrido[4,3-d]pyrimidin-4-yl)-6-azabicyclo[3.2.1]octan-3-ol] | 3.63 | 0.612 | 2340 | 0.369 | 1.51 | 2.1 | 1.13 | 0.722 | 2340
Fc1c(-c2cccc3cccc(F)c23)ncc2c(N3CCCC4(CCC4)C3)nc(OCC34CCCN3CCC4)nc12 [Example 232, 8-fluoro-7-(8-fluoronaphthalen-1-yl)-2-((hexahydro-1H-pyrrolizin-7a-yl)methoxy)-4-(6-azaspiro[3.5]nonan-6-yl)pyrido[4,3-d]pyrimidine] | 11.9 | 7.78 | 25900 | 19.4 | 9.99 | 19.2 | 13.6 | 17.3 | 18000
OCC1CCCN(c2nc(OCC34CCCN3CCC4)nc3c(F)c(-c4cccc5cccc(F)c45)ncc23)C1 (stereo not drawn) [Example 113, (1-(8-fluoro-7-(8-fluoronaphthalen-1-yl)-2-((tetrahydro-1H-pyrrolizin-7a(5H)-yl)methoxy)pyrido[4,3-d]pyrimidin-4-yl)piperidin-3-yl)methanol] | 14.2 | 12 | 12200 | 10.6 | 16 | 8.47 | 7.11 | 9.48 | 12100
